Results taken from ChEMBL document CHEMBL1201862, “PubChem BioAssay data set” (2004).
One block for each molecule: values may come before it. Active and inactive are the calls of the source.

Columns and labels:
[1] = mitochondrial function rescue without frataxin homolog – Friedreich's ataxia, plus single-dose screen, dose response (AID 1465); assay type: functional;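 note: yeast depleted of Yfh1p frataxin homolog grown on glycerol needing respiration; WST-1 tetrazolium dye reduction as measure of cellular dehydrogenase metabolic activity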
Bcl-2-related protein A1 = biological target: T1, Bcl-2-related protein A1 (Mus musculus, UniProt Q07440); assay type: functional;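 note: confirmatory dose–response counterscreen on Bfl-1, used to check hits from a UBC13 polyubiquitin inhibitor campaign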
T1 sequence (Q07440 whole entry): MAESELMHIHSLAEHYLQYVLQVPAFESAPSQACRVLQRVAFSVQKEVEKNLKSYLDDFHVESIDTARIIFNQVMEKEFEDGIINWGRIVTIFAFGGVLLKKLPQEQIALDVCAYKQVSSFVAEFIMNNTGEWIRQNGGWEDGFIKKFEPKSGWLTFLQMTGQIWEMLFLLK

[2] = biological target: T2, Ubiquitin-conjugating enzyme E2 N (Homo sapiens, UniProt P61088); assay type: functional
T2 sequence (P61088 whole entry): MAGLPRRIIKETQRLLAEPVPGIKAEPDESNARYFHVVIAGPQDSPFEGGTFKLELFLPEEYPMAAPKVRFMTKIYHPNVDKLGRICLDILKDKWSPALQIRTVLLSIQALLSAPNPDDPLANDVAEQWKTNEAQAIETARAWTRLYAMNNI

[3] = biological target: T2, Ubiquitin-conjugating enzyme E2 N; assay type: functional; remark: listed apart in the source
Bcl-2-like protein 10 = biological target: T3, Bcl-2-like protein 10 (Homo sapiens, UniProt Q9HD36); assay: Concentration-response of Bcl-B inhibitors by biochemical FP with TR3 (AID 1243); assay type: functional
T3 sequence (Q9HD36 whole entry): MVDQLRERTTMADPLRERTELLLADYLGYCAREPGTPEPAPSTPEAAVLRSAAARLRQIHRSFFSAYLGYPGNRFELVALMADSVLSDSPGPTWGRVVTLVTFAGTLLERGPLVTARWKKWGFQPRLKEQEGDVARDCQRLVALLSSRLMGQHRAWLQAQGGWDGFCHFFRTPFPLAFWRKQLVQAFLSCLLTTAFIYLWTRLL

[4] = NIH-3T3 fibroblast cytotoxicity, dose response, cytotoxicity control, cell-based, fluorescence, Alamar Blue, secondary assay (AID 2327); assay type: functional;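 note: NIH-3T3 mouse fibroblasts cultured with fluconazole at 8 µg/mL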
[5] = fluconazole-exposed Candida albicans growth modulators – fluorescence, retest, confirmation (AID 2467); assay type: functional, cell-based
[6] = biological target: Induced myeloid leukemia cell differentiation protein Mcl-1 (Homo sapiens, UniProt Q07820); assay: blockers of MCL1 binding to BIM peptide – biochemical, fluorescence polarization, BIM-BH3 peptide, 1536-well, dose response (AID 2217)
Bcl-2-like protein 1 = Bcl-2-like protein 1 (Homo sapiens, UniProt Q07817); assay: blockers of BCLXL peptide binding – biochemical, fluorescence polarization, 1536-well, selectivity assay for MCL1 inhibitor project, dose response (AID 2218)
Hexokinase HKDC1 = biological target: T4, Hexokinase HKDC1 (Homo sapiens, UniProt Q2TB90); assay: inhibition of HKDC1 glucose phosphorylation – biochemical, W721R variant, dose response (AID 504729); assay type: functional
T4 sequence (Q2TB90 whole entry): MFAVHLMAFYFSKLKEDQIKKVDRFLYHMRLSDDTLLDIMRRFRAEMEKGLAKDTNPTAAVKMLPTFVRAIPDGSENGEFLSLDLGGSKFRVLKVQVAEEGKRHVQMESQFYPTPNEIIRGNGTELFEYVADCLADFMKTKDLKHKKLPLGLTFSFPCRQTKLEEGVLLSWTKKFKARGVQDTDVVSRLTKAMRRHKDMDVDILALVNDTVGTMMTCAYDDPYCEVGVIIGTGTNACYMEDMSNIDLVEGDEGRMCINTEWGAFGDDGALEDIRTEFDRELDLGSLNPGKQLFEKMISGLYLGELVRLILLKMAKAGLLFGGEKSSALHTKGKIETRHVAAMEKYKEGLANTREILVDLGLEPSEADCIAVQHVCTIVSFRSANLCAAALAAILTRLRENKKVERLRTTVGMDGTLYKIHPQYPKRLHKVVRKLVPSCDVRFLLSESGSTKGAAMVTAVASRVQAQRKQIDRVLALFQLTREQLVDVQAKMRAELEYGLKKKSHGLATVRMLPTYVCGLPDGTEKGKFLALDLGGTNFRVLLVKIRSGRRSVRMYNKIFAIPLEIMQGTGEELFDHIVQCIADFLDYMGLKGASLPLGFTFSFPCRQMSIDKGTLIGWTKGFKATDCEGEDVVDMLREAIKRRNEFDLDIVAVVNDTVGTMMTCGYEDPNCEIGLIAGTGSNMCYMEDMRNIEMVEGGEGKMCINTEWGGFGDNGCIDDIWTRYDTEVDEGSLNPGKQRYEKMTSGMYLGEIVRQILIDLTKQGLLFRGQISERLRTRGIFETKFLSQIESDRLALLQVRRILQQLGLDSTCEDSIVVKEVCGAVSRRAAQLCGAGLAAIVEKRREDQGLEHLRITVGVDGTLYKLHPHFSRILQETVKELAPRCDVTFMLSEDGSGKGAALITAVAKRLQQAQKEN

[7] = biological target: Heat shock protein HSP 90-alpha (Homo sapiens, UniProt P07900); assay type: functional, organism-based
[8] = Luminescent dose response cell-based high throughput screening assay for inhibitors of the Janus kinase 2 mutant JAK2V617F. [Related pubchem assays: 1446 (Primary screen.), 1521 (Confirmation assay.), 1486 (Counter screen.)]; assay type: functional
Paired box protein Pax-8 = Paired box protein Pax-8 (Homo sapiens, UniProt Q06710); assay: PAX8 transcriptional activity inhibition in RMG-I – RMG-I cells, luciferase, cherry-pick, dose response (AID 687027); assay type: functional, cell-based;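 note: luciferase reporter driven by Pax8 target thyroperoxidase promoter measured by SteadyGlo luminescence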
[9] = general cell-killing toxicity readout – plate reader, dry powder samples, cytotoxicity control for PAX8 inhibitor project, dose response (AID 743021); assay type: functional, cell-based

Sequence of Paired box protein Pax-8 (Q06710 whole entry): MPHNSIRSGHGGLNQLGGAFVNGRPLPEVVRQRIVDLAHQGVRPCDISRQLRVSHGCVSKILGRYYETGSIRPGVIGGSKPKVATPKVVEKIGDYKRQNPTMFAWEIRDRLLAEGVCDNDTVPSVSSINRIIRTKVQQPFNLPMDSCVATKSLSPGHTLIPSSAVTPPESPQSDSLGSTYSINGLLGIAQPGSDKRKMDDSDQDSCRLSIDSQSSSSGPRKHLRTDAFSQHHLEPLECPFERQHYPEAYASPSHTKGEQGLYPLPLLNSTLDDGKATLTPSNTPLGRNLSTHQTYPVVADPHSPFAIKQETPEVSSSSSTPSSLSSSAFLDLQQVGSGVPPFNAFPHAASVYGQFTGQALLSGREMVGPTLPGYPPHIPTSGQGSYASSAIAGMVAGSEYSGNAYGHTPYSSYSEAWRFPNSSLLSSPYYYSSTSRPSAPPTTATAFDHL
Sequence of Induced myeloid leukemia cell differentiation protein Mcl-1 (Q07820 whole entry): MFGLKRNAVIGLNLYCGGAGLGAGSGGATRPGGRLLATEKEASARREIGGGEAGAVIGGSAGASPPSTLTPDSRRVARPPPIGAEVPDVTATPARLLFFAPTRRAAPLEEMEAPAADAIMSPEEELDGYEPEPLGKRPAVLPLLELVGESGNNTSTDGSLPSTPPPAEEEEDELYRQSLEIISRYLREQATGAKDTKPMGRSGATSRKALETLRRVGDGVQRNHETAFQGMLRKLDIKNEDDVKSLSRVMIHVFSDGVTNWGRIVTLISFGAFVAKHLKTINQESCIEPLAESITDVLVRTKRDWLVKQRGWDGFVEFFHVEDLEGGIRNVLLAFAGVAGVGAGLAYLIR
Sequence of Bcl-2-like protein 1 (Q07817 whole entry): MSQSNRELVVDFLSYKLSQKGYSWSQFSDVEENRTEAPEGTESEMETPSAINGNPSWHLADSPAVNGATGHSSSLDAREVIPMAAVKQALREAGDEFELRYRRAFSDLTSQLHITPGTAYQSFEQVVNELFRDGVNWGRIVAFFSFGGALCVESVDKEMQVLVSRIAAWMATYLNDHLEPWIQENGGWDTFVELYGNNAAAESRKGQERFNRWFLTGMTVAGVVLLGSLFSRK

IC50 (Bcl-2-related protein A1): > 20 µM (inactive)
IC50 [2]: 18.1 µM (active)
IC50 [3]: 18.3 µM (active)
SMILES: COc1ccc(C(=O)NC(=S)NNC(=O)c2ccc(NC(C)=O)cc2)cc1Br
EC50 [1]: > 100 µM (active)

EC50 (Bcl-2-like protein 10): 13.2 µM (active)
SMILES: CCOc1ccc(/C=C(/NC(=O)c2ccc(C)cc2)C(=O)NCCO)cc1

SMILES: Cc1ccc(/N=C/c2cc(Cc3ccccc3Cl)cc([N+](=O)[O-])c2O)c(O)c1
EC50 [4]: 11.3 µM (active)
EC50 [5]: 1.78 µM (active)
IC50 [6]: 9.13 µM (active)
IC50 (Bcl-2-like protein 1): 7.22 µM (active)
IC50 (Hexokinase HKDC1): 28.5 µM (inactive)
AC50 [7]: 1.61 µM (active)

SMILES: O=C(CCl)/N=c1\sccn1Cc1cccc2ccccc12
IC50 [8]: 0.224 µM (active)
AC50 (Paired box protein Pax-8): 0.572 µM (active)
AC50 [9]: 1.66 µM (active)
